# ChEMBL document CHEMBL5053549, “Discovery of Potent and Novel Dual PARP/BRD4 Inhibitors for Efficient Treatment of Pancreatic Cancer” (J Med Chem, 2021)
# pIC50: −log10 of the molar value. Activity calls are given as the source filed them. The rule behind the calls is not given here.
# Experiments:
# Mus musculus [1] = test: Inhibition of homologous recombinant repair in human SW1990 cells xenografted in BALB/c mouse assessed as reduction in c-Myc expression at 45 mg/kg, ip after 4 days by immunohistochemical analysis; assay type: functional, organism-based; conditions: time 4.0 day
# Mus musculus [2] = test: Inhibition of homologous recombinant repair in human SW1990 cells xenografted in BALB/c mouse assessed as reduction in Rad51 expression at 45 mg/kg, ip after 4 days by immunohistochemical analysis; assay type: functional, organism-based; conditions: time 4.0 day
# Mus musculus [3] = test: Effect on cell cycle progression in human SW1990 cells xenografted in BALB/c mouse assessed as reduction in CCND1 expression at 45 mg/kg, ip after 4 days by Western blot analysis; assay type: functional, organism-based; conditions: time 4.0 day
# Mus musculus [4] = test: Toxicity in BALB/c mouse xenografted with human SW1990 cells assessed as kidney damage at 45 mg/kg, ip administered for 28 consecutive days by H and E staining based […] microscopic analysis; assay type: organism-based; conditions: in vivo, 672 h, time 28 day
# SW1990 [5] = test: Antiproliferative activity against human SW1990 cells assessed as reduction in cell viability after 4 days by MTT assay; assay type: functional, cell-based; conditions: SW1990, 96 h
# Mus musculus [6] = test: Effect on cell cycle progression in human SW1990 cells xenografted in BALB/c mouse assessed as reduction in E2F2 expression at 45 mg/kg, ip after 4 days by Western blot analysis; assay type: functional, organism-based; conditions: time 4.0 day
# [7] = target: Bromodomain-containing protein 4 (Homo sapiens, UniProt O60885); test: Inhibition of BRD4 expression in human SW1990 cells at 1 uM after 4 days by Western blot analysis; assay type: cell-based; conditions: time 4.0 day
# MDA-MB-231 = test: Antiproliferative activity against human MDA-MB-231 cells assessed as reduction in cell viability after 7 days; assay type: functional, cell-based; conditions: MDA-MB-231, 168 h
# [8] = target: Bromodomain-containing protein 3 (Homo sapiens, UniProt Q15059); test: Inhibition of recombinant BRD3 BD2 (unknown origin) incubated for 120 mins by TR-FRET assay
# Sequence of Bromodomain-containing protein 3 (Q15059 whole entry): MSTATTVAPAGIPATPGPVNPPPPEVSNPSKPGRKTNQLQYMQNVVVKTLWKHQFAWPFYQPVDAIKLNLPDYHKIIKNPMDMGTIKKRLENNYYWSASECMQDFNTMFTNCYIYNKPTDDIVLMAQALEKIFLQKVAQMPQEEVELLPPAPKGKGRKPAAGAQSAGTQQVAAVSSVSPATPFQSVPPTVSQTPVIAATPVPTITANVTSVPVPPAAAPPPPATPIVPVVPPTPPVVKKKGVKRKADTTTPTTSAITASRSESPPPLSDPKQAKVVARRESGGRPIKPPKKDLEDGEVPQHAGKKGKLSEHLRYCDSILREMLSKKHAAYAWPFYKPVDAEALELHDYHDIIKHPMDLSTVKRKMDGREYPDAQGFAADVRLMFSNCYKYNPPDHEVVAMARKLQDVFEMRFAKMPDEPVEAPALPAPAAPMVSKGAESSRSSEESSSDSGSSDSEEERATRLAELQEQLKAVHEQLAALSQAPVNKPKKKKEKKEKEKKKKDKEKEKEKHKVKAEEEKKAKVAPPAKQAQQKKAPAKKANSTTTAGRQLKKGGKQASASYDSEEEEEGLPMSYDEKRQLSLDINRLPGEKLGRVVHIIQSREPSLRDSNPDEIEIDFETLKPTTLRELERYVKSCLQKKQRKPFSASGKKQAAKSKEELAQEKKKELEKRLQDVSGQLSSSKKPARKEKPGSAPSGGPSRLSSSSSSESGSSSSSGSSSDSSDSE
# CFPAC-1 = test: Antiproliferative activity against human CFPAC-1 cells assessed as reduction in cell viability after 4 days by MTT assay; assay type: functional, cell-based; conditions: CFPAC-1, 96 h, read-out: IC50
# Mus musculus [9] = test: In vivo inhibition of PARP1 expression in human […] cells xenografted in BALB/c mouse at 45 mg/kg, ip administered for 28 consecutive days by Q-PCR analysis; assay type: functional, organism-based; conditions: time 28.0 day
# SW1990 [10] = test: Induction of apoptosis in human SW1990 cells assessed as early apoptotic cells at 2 uM after 4 days by Annexin V-FITC and propidium iodide staining based flow cytometry (reference value: […]%); assay type: functional; conditions: time 4 day
# SW1990 [11] = test: Inhibition of colony formation in human SW1990 cells at 1 uM after 14 days by crystal violet staining based microscopic analysis; assay type: functional, cell-based; conditions: time 14.0 day
# SW1990 [12] = test: Inhibition of homologous recombinant repair in human SW1990 cells assessed as increase in […] expression at 1 to 2 uM after 4 days by Western blot analysis; assay type: functional, cell-based; conditions: dose 1-2 µM, time 4.0 day
# [13] = target: Histone acetyltransferase p300 (Homo sapiens, UniProt Q09472); test: Inhibition of P300 (unknown orign) using acetyl-CoA as substrate preincubated for 30 mins followed by substrate addition measured after 1 hr by microplate reader analysis
# Sequence of Histone acetyltransferase p300 (Q09472 whole entry): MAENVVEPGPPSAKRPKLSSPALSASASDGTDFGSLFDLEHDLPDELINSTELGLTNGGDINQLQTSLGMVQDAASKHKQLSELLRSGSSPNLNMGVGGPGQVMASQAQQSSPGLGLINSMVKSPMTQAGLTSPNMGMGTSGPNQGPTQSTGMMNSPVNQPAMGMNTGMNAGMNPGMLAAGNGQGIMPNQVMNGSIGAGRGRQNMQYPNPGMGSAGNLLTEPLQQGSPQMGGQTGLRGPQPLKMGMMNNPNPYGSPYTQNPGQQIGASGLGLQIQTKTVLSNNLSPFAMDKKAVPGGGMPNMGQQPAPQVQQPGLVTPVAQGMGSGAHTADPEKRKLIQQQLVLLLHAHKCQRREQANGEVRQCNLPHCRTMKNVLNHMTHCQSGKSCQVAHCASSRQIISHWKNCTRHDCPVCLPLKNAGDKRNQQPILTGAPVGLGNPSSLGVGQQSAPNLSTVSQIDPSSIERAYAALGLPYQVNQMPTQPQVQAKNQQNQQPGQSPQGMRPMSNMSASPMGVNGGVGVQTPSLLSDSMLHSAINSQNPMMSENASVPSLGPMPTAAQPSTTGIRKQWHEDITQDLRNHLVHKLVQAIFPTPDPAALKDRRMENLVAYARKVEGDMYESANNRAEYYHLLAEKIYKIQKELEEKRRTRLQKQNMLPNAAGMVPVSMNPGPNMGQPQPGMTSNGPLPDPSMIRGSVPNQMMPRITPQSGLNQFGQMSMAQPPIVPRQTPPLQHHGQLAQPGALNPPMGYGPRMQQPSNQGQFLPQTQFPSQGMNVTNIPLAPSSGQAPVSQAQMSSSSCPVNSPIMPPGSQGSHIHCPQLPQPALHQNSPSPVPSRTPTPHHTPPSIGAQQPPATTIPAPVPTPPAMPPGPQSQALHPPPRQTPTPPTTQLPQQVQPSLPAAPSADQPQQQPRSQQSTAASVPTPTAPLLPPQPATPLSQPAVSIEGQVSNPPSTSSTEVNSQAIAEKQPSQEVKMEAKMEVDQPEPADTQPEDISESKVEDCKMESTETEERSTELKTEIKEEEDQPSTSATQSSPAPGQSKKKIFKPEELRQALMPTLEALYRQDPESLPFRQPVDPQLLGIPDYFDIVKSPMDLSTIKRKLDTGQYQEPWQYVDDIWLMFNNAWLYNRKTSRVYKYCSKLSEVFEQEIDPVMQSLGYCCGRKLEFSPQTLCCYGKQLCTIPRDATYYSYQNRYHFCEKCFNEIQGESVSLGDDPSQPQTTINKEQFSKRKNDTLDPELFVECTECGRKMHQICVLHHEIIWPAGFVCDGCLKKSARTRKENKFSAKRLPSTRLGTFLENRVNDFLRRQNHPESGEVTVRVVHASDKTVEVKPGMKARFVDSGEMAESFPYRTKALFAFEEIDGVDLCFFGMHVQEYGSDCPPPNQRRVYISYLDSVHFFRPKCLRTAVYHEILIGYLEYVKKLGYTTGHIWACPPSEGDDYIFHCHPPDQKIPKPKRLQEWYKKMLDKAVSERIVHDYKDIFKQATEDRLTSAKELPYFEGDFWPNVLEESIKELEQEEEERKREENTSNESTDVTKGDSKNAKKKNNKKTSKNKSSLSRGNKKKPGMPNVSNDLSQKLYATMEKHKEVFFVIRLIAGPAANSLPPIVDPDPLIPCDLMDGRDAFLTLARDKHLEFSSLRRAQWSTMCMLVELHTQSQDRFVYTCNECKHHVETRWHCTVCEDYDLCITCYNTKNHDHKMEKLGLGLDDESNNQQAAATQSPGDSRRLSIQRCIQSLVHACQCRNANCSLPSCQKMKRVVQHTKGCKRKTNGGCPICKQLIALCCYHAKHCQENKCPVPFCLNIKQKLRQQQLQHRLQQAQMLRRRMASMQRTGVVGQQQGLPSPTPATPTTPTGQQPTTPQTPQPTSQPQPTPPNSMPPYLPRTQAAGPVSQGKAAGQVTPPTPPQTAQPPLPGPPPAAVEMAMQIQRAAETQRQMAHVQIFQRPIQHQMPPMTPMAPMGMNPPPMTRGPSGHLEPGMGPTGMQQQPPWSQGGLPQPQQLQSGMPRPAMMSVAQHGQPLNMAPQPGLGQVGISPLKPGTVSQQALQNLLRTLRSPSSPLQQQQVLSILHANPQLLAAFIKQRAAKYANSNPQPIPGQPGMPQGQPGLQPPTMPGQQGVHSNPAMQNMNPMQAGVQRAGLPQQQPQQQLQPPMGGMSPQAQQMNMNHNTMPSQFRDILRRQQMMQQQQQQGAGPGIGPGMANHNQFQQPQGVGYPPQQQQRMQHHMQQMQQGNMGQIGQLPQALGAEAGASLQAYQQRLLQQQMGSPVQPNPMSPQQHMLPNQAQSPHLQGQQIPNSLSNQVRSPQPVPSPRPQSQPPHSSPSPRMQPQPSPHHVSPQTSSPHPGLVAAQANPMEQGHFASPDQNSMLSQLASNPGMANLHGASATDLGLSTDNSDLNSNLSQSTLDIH
# SW1990 [14] = test: Induction of autophagy in human SW1990 cells xenografted in BALB/c mouse assessed as decrease in p62 expression at 45 mg/kg, ip after 4 days by Western blot analysis; assay type: functional, organism-based; conditions: time 4.0 day
# SW1990 [15] = test: Effect on cell cycle progression in human SW1990 cells assessed as reduction in CDK6 expression at 1 to 2 uM after 4 days by Q-PCR analysis; assay type: functional, cell-based; conditions: dose 1-2 µM, time 4.0 day
# Mus musculus [16] = test: Inhibition of homologous recombinant repair in human SW1990 cells xenografted in BALB/c mouse assessed as reduction in olaparib-induced Rad51 expression at 15 mg/kg, ip after 4 days by immunohistochemical analysis; assay type: functional, organism-based; conditions: time 4.0 day
# CAPAN-1 = test: Antiproliferative activity against human CAPAN-1 cells assessed as reduction in cell viability after 4 days by MTT assay; assay type: functional, cell-based; conditions: CAPAN-1, 96 h
# SW1990 [17] = test: Induction of cell cycle arrest in human SW1990 cells assessed as accumulation of cells at S phase at 1 uM incubated for 4 days by propidium iodide staining based flow cytometry (reference value: 29.32%); assay type: functional; conditions: time 4 day
# SW1990 [18] = test: Induction of autophagy in human SW1990 cells xenografted in BALB/c mouse assessed as increase in ATG5 expression at 45 mg/kg, ip after 4 days by Western blot analysis; assay type: functional, organism-based; conditions: time 4.0 day
# SW1990 [19] = test: Induction of apoptosis in human SW1990 cells assessed as necrotic cells at 1 uM after 4 days by Annexin V-FITC and propidium iodide staining based flow cytometry (reference value: 1.89%); assay type: functional; conditions: time 4 day
# Mus musculus [20] = test: Effect on cell cycle progression in human SW1990 cells xenografted in BALB/c mouse assessed as reduction in CDK6 expression at 45 mg/kg, ip after 4 days by Q-PCR analysis; assay type: functional, organism-based; conditions: time 4.0 day
# SW1990 [21] = test: Induction of cell cycle arrest in human SW1990 cells assessed as accumulation of cells at G2/M phase at 1 uM incubated for 4 days in presence of 3 uM Olaparib by propidium iodide staining based flow cytometry (reference value: 5.89%); assay type: functional; conditions: time 4 day
# Mus musculus [22] = test: In vivo inhibition of PARP1 expression in human […] cells xenografted in BALB/c mouse assessed as reversal of Olaparib-induced PARP1 accumulation at 15 mg/kg, ip administered for 28 consecutive days in presence of 45 mg/kg Olaparib by Q-PCR analysis; assay type: functional, organism-based; conditions: time 28.0 day
# SW1990 [23] = test: Induction of apoptosis in human SW1990 cells assessed as late apoptotic cells at 1 uM after 4 days in presence of 3 uM Olaparib by Annexin V-FITC and propidium iodide staining based flow cytometry (reference value: 6.22%); assay type: functional; conditions: time 4 day
# SW1990 [24] = test: Inhibition of homologous recombinant repair in human SW1990 cells assessed as increase in […] expression at 4 uM after 4 days by Western blot analysis; assay type: functional, cell-based; conditions: time 4.0 day
# Mus musculus [25] = test: Toxicity in BALB/c mouse xenografted with human SW1990 cells assessed as liver damage at 15 mg/kg, ip administered for 28 consecutive days in presence of 45 mg/kg Olaparib; assay type: organism-based; conditions: in vivo, 672 h, time 28 day
# Mus musculus [26] = test: Toxicity in BALB/c mouse xenografted with human SW1990 cells assessed as effect on body weight at 15 mg/kg, ip administered for 28 consecutive days in presence of 45 mg/kg Olaparib; assay type: organism-based; conditions: in vivo, 672 h, time 28 day
# SW1990 [27] = test: Induction of cell cycle arrest in human SW1990 cells assessed as accumulation of cells at G0/G1 phase at 1 uM incubated for 4 days in presence of 3 uM Olaparib by propidium iodide staining based flow cytometry (reference value: 64.79%); assay type: functional; conditions: time 4 day
# SW1990 [28] = test: Inhibition of homologous recombinant repair in human SW1990 cells assessed as reduction in Olaparib-induced Rad51 expression at 1 uM after 4 days in presence of Olaparib by Q-PCR analysis; assay type: functional, cell-based; conditions: time 4.0 day
# Mus musculus [29] = test: Toxicity in BALB/c mouse xenografted with human SW1990 cells assessed as kidney damage at 15 mg/kg, ip administered for 28 consecutive days by H and E staining based […] microscopic analysis; assay type: organism-based; conditions: in vivo, 672 h, time 28 day
compound,measurement,setting,value
CC[C@@H]1C(=O)N(C)c2cnc(N(C)c3ccc(-c4nc5c(C(N)=O)cccc5[nH]4)cc3OC)nc2N1C1CCCC1,inhibition,Mus musculus [1],Active
same,inhibition,Mus musculus [2],Active
same,Activity,Mus musculus [3],Active
same,Activity,Mus musculus [4],Non-Toxic
same,pIC50,SW1990 [5],6.01
same,Activity,Mus musculus [6],Active
same,inhibition,[7],Active
same,pIC50,MDA-MB-231,6.47
same,pIC50,[8],6.91
same,pIC50,CFPAC-1,5.94
same,Activity,Mus musculus [9],Active
same,Activity,SW1990 [10],2.81%
same,inhibition,SW1990 [11],Active
same,inhibition,SW1990 [12],Active
same,pIC50,[13],4.23
same,Activity,SW1990 [14],Active
same,Activity,SW1990 [15],Active
same,inhibition,Mus musculus [16],Active
same,pIC50,CAPAN-1,5.81
same,Activity,SW1990 [17],14.74%
same,Activity,SW1990 [18],Active
same,Activity,SW1990 [19],3.41%
same,Activity,Mus musculus [20],Active
Cc1sc2c(c1C)C(c1ccc(Cl)cc1)=N[C@@H](CC(=O)OC(C)(C)C)c1nnc(C)n1-2,Activity,SW1990 [21],9.14%
same,Activity,Mus musculus [22],Active
same,pIC50,SW1990 [5],5.43
same,Activity,SW1990 [23],36.2%
same,inhibition,SW1990 [24],Active
same,pIC50,MDA-MB-231,6.19
same,pIC50,CFPAC-1,5.81
same,Activity,Mus musculus [25],Non-Toxic
same,Activity,Mus musculus [26],Non-Toxic
same,Activity,SW1990 [27],71.53%
same,pIC50,[13],4.71
same,inhibition,SW1990 [28],Active
same,Activity,Mus musculus [29],Non-Toxic
same,pIC50,CAPAN-1,5.61
